Entries after “also recorded” stand apart in the source; their conditions may differ.
Assays:
trained sensory panel [1] = assay: Intrinsic taste recognition thresholds, three-alternative forced choice tests in 1% ethanol; format: in vivo, human; settings: in 1% ethanol/water; for Intrinsic taste threshold: three-alternative forced choice; for Intrinsic taste quality: taste recognized at threshold
Procedure: Seventeen trained assessors (ten women and seven men, ages 23-30) were recruited from the Chair of Food Chemistry and Molecular Sensory Science (TUM). The sensory sessions were performed at 22° C. in air-conditioned sensory booths. To prevent cross-modal interactions with odorants, the panelists used nose-clips. Furthermore the light in the sensory booths was adjusted to yellow in order to eliminate optical differences between the samples. The human recognition thresholds for the intrinsic taste of the purified compounds were determined by means of three-alternative forced choice tests in 1% ethanol. Serial 1:2 dilutions of the sample were presented in order of increasing concentrations to the panelists using the sip-and-spit-method. The geometric mean of the last and the next-to-last concentrations were calculated and taken as the individual recognition threshold. The threshold values evaluated in two different sessions were averaged.

trained sensory panel [2] = assay: Taste recognition thresholds for kokumi/mouthfulness enhancement, duo-trio tests in chanterelle flavor recombinant; format: in vivo, human; settings: for Kokumi threshold: in recombinant chanterelle flavor, pH 5.8, duo-trio test; for Kokumi effect (in words): vis-à-vis recombinant chanterelle flavor
Procedure: An artificial chanterelle flavor recombinant was used as a reference flavor for determining the flavor-enhancing effect of the compounds to be tested. The pH value was adjusted to 5.8 with trace amounts of formic acid: Seventeen trained assessors (ten women and seven men, ages 23-30) were recruited from the Chair of Food Chemistry and Molecular Sensory Science (TUM). The sensory sessions were performed at 22° C. in air-conditioned sensory booths. To prevent cross-modal interactions with odorants, the panelists used nose-clips. Furthermore the light in the sensory booths was adjusted to yellow in order to eliminate optical differences between the samples. The taste threshold concentrations of the purified compounds were determined in the above-described chanterelle flavor recombinant using duo-trio-tests. The pH value of the individual samples and blanks was adjusted to 5.8 by adding trace amounts of formic acid. The samples were presented in serial 1:2 dilutions in order of increasing concentrations to the trained panel and the panelists were asked to mark the sample differing from the recombinant which was used as constant reference (one sample was identical to the reference, one sample was different). The threshold value of the sensory panel was approximated by averaging the threshold values of the individual panelists in two independent sessions.

`O=C(O)CCCCCCC/C=C\CC#CC(O)/C=C/C(O)CO` (stereo not drawn) [Compound 1, (9Z,15E)-14,17,18-trihydroxy-9,15-octadecadien-12-ynoic acid] gave an Intrinsic taste threshold (trained sensory panel [1]) of over 1000 µmol/L and a Kokumi threshold (trained sensory panel [2]) of 59 µmol/L.
In the case of `O=C(O)CCCCCCC/C=C\C=C/CC(O)CCC(O)CO` (stereo not drawn) [Compound 2, (9Z,11Z)-14,17,18-trihydroxy-9,11-octadecadienoic acid], the Intrinsic taste quality (trained sensory panel [1]) is reported as “[bitter]”, the Intrinsic taste threshold (trained sensory panel [1]) is reported as 331 µmol/L and the “Kokumi effect (in words)” value (trained sensory panel [2]) is reported as “did not exhibit a kokumi effect; also recorded: do not exhibit a kokumi flavor”.
In the case of `O=C(O)CCCCCCC/C=C\C=C/CC(O)CCCCO` (stereo not drawn) [Compound 3, (9Z,11Z)-14,18-dihydroxyoctadeca-9,11-dienoic acid], the Intrinsic taste quality (trained sensory panel [1]) is reported as “[bitter]”, the Intrinsic taste threshold (trained sensory panel [1]) is reported as 281 µmol/L and the “Kokumi effect (in words)” value (trained sensory panel [2]) is reported as “did not exhibit a kokumi effect; also recorded: do not exhibit a kokumi flavor”.
For `CCC/C=C\C#C/C=C/C(O)CCCCCCCC(=O)O` (stereo not drawn) [Compound 4, (10E,14Z)-9-hydroxy-10,14-octadecadien-12-ynoic acid], the Intrinsic taste quality (trained sensory panel [1]) was “[astringent]”, the Intrinsic taste threshold (trained sensory panel [1]) was 320 µmol/L and the Kokumi threshold (trained sensory panel [2]) was 69 µmol/L.
For `CC/C=C/C(=O)C#CC/C=C\CCCCCCCC(=O)O` [Compound 5, (9Z,15E)-14-oxo-9,15-octadecadien-12-ynoic acid], the Intrinsic taste quality (trained sensory panel [1]) was “[pungent]”, the Intrinsic taste threshold (trained sensory panel [1]) was 228 µmol/L and the Kokumi threshold (trained sensory panel [2]) was 19 µmol/L.
In the case of `CCC/C=C\C#C/C=C/C(=O)CCCCCCCC(=O)O` [Compound 6, (10E,14Z)-9-oxo-10,14-octadecadien-12-ynoic acid], the Intrinsic taste quality (trained sensory panel [1]) is reported as “[astringent]”, the Intrinsic taste threshold (trained sensory panel [1]) is reported as 639 µmol/L and the Kokumi threshold (trained sensory panel [2]) is reported as 79 µmol/L.
For `CCC/C=C\CC(O)/C=C/CCCCCCCCC(=O)O` (stereo not drawn) [Compound 8, (10E,14Z)-12-hydroxy-10,14-octadecadienoic acid], the Intrinsic taste quality (trained sensory panel [1]) was “[bitter]”, the Intrinsic taste threshold (trained sensory panel [1]) was 297 µmol/L and the “Kokumi effect (in words)” value (trained sensory panel [2]) was “did not exhibit a kokumi effect; also recorded: do not exhibit a kokumi flavor”.
`CC/C=C/C(=O)C#CC/C=C\CCCCCCCC(=O)OC` [Compound 9, (9Z,15E)-14-oxo-9,15-octadecadien-12-ynoic acid methyl ester] was tested, and the Kokumi threshold (trained sensory panel [2]) was 59 µmol/L.
`CCC/C=C\C#C/C=C/C(CCCCCCCC(=O)O)OO` (stereo not drawn) [Compound 10, (10E,14Z)-9-hydroperoxy-10,14-octadecadien-12-ynoic acid] was tested, and the Intrinsic taste quality (trained sensory panel [1]) was “[bitter]”, the Intrinsic taste threshold (trained sensory panel [1]) was 536 µmol/L and the Kokumi threshold (trained sensory panel [2]) was 38 µmol/L.
`CCC/C=C\C#CC/C=C\CCCCCCCC(=O)O` [Compound 11, 14,15-dehydrocrepenynic acid] was tested, and the Intrinsic taste quality (trained sensory panel [1]) was “[bitter]”, the Intrinsic taste threshold (trained sensory panel [1]) was 531 µmol/L and the Kokumi threshold (trained sensory panel [2]) was 105 µmol/L.
In the case of `CCC/C=C\C#CC/C=C\CCCCCCCC(=O)OC` [Compound 12, 14,15-dehydrocrepenynic acid methyl ester], the Intrinsic taste quality (trained sensory panel [1]) is reported as “[astringent]”, the Intrinsic taste threshold (trained sensory panel [1]) is reported as 648 µmol/L and the Kokumi threshold (trained sensory panel [2]) is reported as 32 µmol/L.
`CCC/C=C\C#CC/C=C\CCCCCCCC(=O)OCC` [Compound 13, 14,15-dehydrocrepenynic acid ethyl ester] was tested, and the Intrinsic taste quality (trained sensory panel [1]) was “[astringent]”, the Intrinsic taste threshold (trained sensory panel [1]) was 512 µmol/L and the Kokumi threshold (trained sensory panel [2]) was 59 µmol/L.
`CCCCCC/C=C/C#CCCCCCCCC(=O)O` [ximenynic acid, 11E-octadecen-9-ynoic acid, reference compound] was tested, and the Intrinsic taste quality (trained sensory panel [1]) was “[bitter]”, the Intrinsic taste threshold (trained sensory panel [1]) was 482 µmol/L and the Kokumi threshold (trained sensory panel [2]) was 84 µmol/L.
